Laboratory results reported in article PMC9505734, “Design, Synthesis, and Evaluation of a Set of Carboxylic Acid and Phosphate Prodrugs Derived from HBV Capsid Protein Allosteric Modulator NVR 3-778” (Molecules, 2022).
Values after ≈ are worked out from the molar mass of the structure shown. Counter-ions that a name gives are not always drawn. Like-named read-outs stand apart in the source and are kept apart here.

How the values were obtained:
[1] = Cytotoxicity assay (WST, Cell Counting Kit-8); format: cell-based; conditions: human, Hep38.7-Tet cells, WST method (CCK-8); read-out: CC50: the concentration that kills 50% of Hep38.7-Tet cells
Procedure: (§1) The target compounds N5-N8 were evaluated for their antiviral potency against HBV replication, as well as cytotoxicity in Hep38.7-Tet cells, which reproduces HBV replication from a chromosome-integrated HBV transgene under depletion of tetracycline from the medium. The 50% effective concentration (EC50) for anti-HBV activity, 50% cytotoxic concentration (CC50), and selectivity index (SI) calculated by CC50/EC50 ratio are shown in Table 1.
(§2) The WST assays were performed by using Cell Counting Kit-8 (CCK-8) (DOJINDO) according to the manufacturer’s protocol. CCK-8 solution was added to the cells, which were incubated at 37 °C for 15 min and the absorbance at 450 nm was measured.

[2] = test system: HBV replication in Hep38.7-Tet cells; assay: In vitro anti-HBV assay: inhibition of HBV replication (HBV DNA in culture supernatant, real-time PCR); format: cell-based, Hepatitis B virus; conditions: for EC50: Hepatitis B virus, 144 h, 6 days treatment, read-out: EC50: the concentration of 50% inhibition for HBV DNA in Hep38.7-Tet cells supernatant
Procedure: as §1
Hep38.7-Tet cells were cultured with DMEM/F-12/GlutaMAX supplemented with 10% fetal bovine serum, and 10 mM HEPES, 200 unit/mL penicillin, 200 µg/mL streptomycin, 5 µg/mL insulin, and 400 ng/mL tetracycline were added at 37 °C in 5% CO2. Tetracycline was removed when inducing HBV replication. Three days after seeding the cells, the cells were treated with or without compounds for 6 days and the culture supernatants were recovered to quantify HBV DNA using the primers 5′-[…]-3′, 5′-[…]-3′, and a probe 5′-FAM-[…]-TAMRA-3′ by real-time fluorescence quantitative PCR, as described.

[3] = parameters: method as in PMID 35268440; conditions: pH = 2.0 ref 16; cited from earlier work
HepG2.2.15 cell line = conditions: read-out: EC50, antiviral activity; cited from earlier work
[4] = Pharmacokinetic experiment after oral administration in rats; format: in vivo, SD rats; conditions: for MRT last: read-out: MRT0-last
Procedure: In order to explore the metabolism and bioavailability of prodrug in vivo after oral administration, the main pharmacokinetic parameters were tested. After oral administration of N6 and NVR 3-778 to the two groups of rats, we detected their plasma concentration, respectively. […] The experimental results confirmed that N6 had longer half-life and lower maximum concentration in vivo than NVR 3-778. In addition, N6 was completely transformed into NVR 3-778 in vivo, and both had favorable bioavailability. Compared with NVR3-778, N6 can release drugs more slowly, which can improve the narrow therapeutic window of NVR3-778 to some extent.
Six male SD rats were randomly divided into two groups (administered with N6 and NVR 3-778, respectively). The rats were fasted for 12 h before administration and had free access to water. Animal feed was given 4 h after administration. Compounds N6 and NVR 3-778 were both administered orally at a dose of 10 mg/kg. The corresponding doses of compounds were dissolved in DMSO/PEG400/water (3%/60%/37%, V/V/V) mixed solution to prepare compound oral solutions, respectively, which were filtered through the […]. After intragastric administration, blood was obtained by jugular vein puncture (blood point: before administration and 0.25 h, 0.5 h, 1 h, 2 h, 4 h, 6 h, 10 h, and 24 h after administration). Then 0.25 mL whole blood was collected from each rat at each time point, adding EDTA-K2 for anticoagulation. After collection, the plasma was centrifuged within 1 h (centrifugal condition: 8000 rpm, 5 min, 8 °C). Plasma samples were stored in a refrigerator before analysis. After the experiment, all rats were executed according to the regulations of the Experimental Animal Ethics Committee.

Hep38.7-Tet cells = assay: Cytotoxicity assay (WST, Cell Counting Kit-8); format: cell-based
Procedure: as §1, §2

[5] = Whole blood stability at 37 °C; format: in vitro ADME; conditions: rat whole blood, 2 µM; for Whole Blood (37 °C) Residual: after 2 h
Procedure: (§3) In order to verify the stability of prodrug in vitro, the stability of NVR 3-778 and prodrug N6 in plasma at 4 °C and whole blood at 37 °C was tested by the LC-MS/MS and characterization of their stability by peak area. […] A total of 1 mL of rat plasma was placed in ice water at 4 °C and 1 mL of rat whole blood was placed in a water bath at 37 °C for use, respectively. DMSO solution with compound concentration of 1 mM was prepared, and then 10 µL compound solution was added to 90 μL 45% methanol aqueous solution to obtain a quantitative solution with a concentration of 100 µM. A 2 µL compound solution was added to 98 µL 4 °C plasma and 37 °C whole blood, and three portions were prepared to reach the final concentration of 2 µM, respectively. After incubation for two hours, 400 µL termination solution was added. The samples were centrifuged at 4000 rpm for 10 min, and the supernatant was extracted. A total of 100 µL supernatant was mixed with 200 µL ultrapure water and fully shaken for 10 min. The absorption peak area (A) of the sample to be tested was determined by HPLC.

Plasma stability at 4 °C = format: in vitro ADME; conditions: rat plasma, 2 µM; for Plasma (4 °C) Residual: after 2 h
Procedure: as §3

[6] = Water solubility test in phosphate buffers (HPLC); format: physicochemical; conditions: for solubility at 1 h: aqueous buffer
Procedure: The compound was dissolved in DMSO to prepare the mother liquor with a concentration of 10 mg/mL, and then 10 µL mother liquor was added to 1 mL phosphate buffer with different pH (pH = 2.0, 7.0, and 7.4). The solution was oscillated for 2 h at 3000 rpm of the vortex oscillator, and the precipitation of compounds was observed visually. The standard curve can be established by increasing the concentration of mother liquor until turbidity appears. The peak area (A) of different concentrations (c) was determined by HPLC. The standard curve was established with the concentration and peak area as abscissa and ordinate, respectively, and the standard curve equation A = kc + b was calculated. The standard curve of NVR 3-778 concentration–peak area was established by measuring the peak area at five concentrations of 1000, 200, 40, 8.0, and 1.6 µg/mL. The standard curve equation was A = 35,268c + 80,359 with R^2 = 0.9999. By measuring the peak area at 4000 µg/mL, 1000 µg/mL, 200 µg/mL, 40 µg/mL, and 8.0 µg/mL, the standard curve of N6 concentration–peak area was established: A = 16,303c + 714,762, R^2 = 0.999. Since the solubility of N6 in phosphate buffer solution (pH = 7.0, 7.4) had exceeded the detector range, the saturated solution of N6 was diluted 10 times for testing. On this basis, the saturated solution (pH = 2.0, 7.0, and 7.4) of phosphate buffer at different pH values was prepared and fully oscillated for 1 h before filtration. Finally, the absorption peak area of the sample at different pH phosphate buffer (pH = 2.0, 7.0, and 7.4) was determined (measured twice). According to the standard curve equation, the corresponding concentration was calculated, which was the solubility of the compound.

[7] = male, SD, plasma, 10 mg/kg, analyte NVR 3-778 after oral NVR 3-778, rat
[8] = male, SD, analyte N6 in plasma after oral N6, 10 mg/kg (18.8 nmol/kg), rat

## O=C(Nc1cc(F)c(F)c(F)c1)c1ccc(F)c(S(=O)(=O)N2CCC(OP(=O)(O)O)CC2)c1 (as salt: phosphate) [N5, 1-((2-Fluoro-5-((3,4,5-trifluorophenyl)carbamoyl)phenyl)sulfonyl)piperidin-4-yl Dihydrogen Phosphate]
other
  melting point: 162 to 164 °C

## O=C(Nc1cc(F)c(F)c(F)c1)c1ccc(F)c(S(=O)(=O)N2CCC(OP(=O)(O)O)CC2)c1 [N5, 1-((2-Fluoro-5-((3,4,5-trifluorophenyl)carbamoyl)phenyl)sulfonyl)piperidin-4-yl Dihydrogen Phosphate]
[1]
  CC50: 13700 ± 1450 nM
[2]
  SI: selectivity index, the ratio of CC50/EC50: 33
  EC50: 420 ± 69 nM

## O=C(Nc1cc(F)c(F)c(F)c1)c1ccc(F)c(S(=O)(=O)N2CCC(O)CC2)c1 [NVR 3-778, 4-Fluoro-3-((4-hydroxypiperidin-1-yl)sulfonyl)-N-(3,4,5-trifluorophenyl)benzamide]
[3]
  water solubility: 3 µg/mL (≈ 6.94 µM)
HepG2.2.15 cell line
  EC50: 400 nM
[4]; analyte NVR 3-778 after oral NVR 3-778, 10 mg/kg (23.1 nmol/kg), rat
  Tlast: 10.0 h
[4]; [7]
  AUC(0-inf): 3940 ± 948 ng·h/mL
  AUC(0-t): 3890 ± 948 ng·h/mL
  Cmax: 1160 ± 261 ng/mL
  Tmax: 0.833 ± 0.289 h
  MRT last: 2.67 ± 0.106 h
[4]; male, SD, plasma, 10 mg/kg, analyte NVR 3-778 after oral NVR 3-778, rat, read-out: MRT0-inf
  MRT inf: 2.78 ± 0.144 h
[4]; male, SD, plasma, analyte NVR 3-778 after oral NVR 3-778, 10 mg/kg (23.1 nmol/kg), rat
  half-life: 1.4 ± 0.25 h
[1]
  CC50: 12600 ± 210 nM
Hep38.7-Tet cells; WST method (CCK-8), read-out: CC50: the concentration that kills 50% of Hep38.7-Tet cells
  CC50: 13600 ± 210 nM
[5]
  Whole Blood (37 °C) 0 h (peak area): 0.18 ± 0.016
  Whole Blood (37 °C) 2 h (peak area): 0.16 ± 0.0026
  Whole Blood (37 °C) Residual: 91%
[2]
  SI: selectivity index, the ratio of CC50/EC50: 36
  EC50: 380 ± 47 nM
Plasma stability at 4 °C
  Plasma (4 °C) 0 h (peak area): 0.12 ± 0.0078
  Plasma (4 °C) 2 h (peak area): 0.10 ± 0.0066
  Plasma (4 °C) Residual: 85%
[6]; phosphate buffer pH = 2.0
  solubility at 1 h: 3.82 µg/mL (≈ 8.83 µM)
[6]; phosphate buffer pH = 7.0
  solubility at 1 h: 24 µg/mL (≈ 55.6 µM)
[6]; phosphate buffer pH = 7.4
  solubility at 1 h: 4.84 µg/mL (≈ 11.2 µM)

## O=C(O)CCCCC(=O)OC1CCN(S(=O)(=O)c2cc(C(=O)Nc3cc(F)c(F)c(F)c3)ccc2F)CC1 [N8, 6-((1-((2-fluoro-5-((3,4,5-trifluorophenyl)carbamoyl)phenyl)sulfonyl)piperidin-4-yl)oxy)-6-oxohexanoic acid]
[1]
  CC50: > 256000 nM
Hep38.7-Tet cells; CC50 in Hep38.7-Tet cells
  reduction of toxicity compared with NVR 3-778: at least 18 fold
[2]
  SI: selectivity index, the ratio of CC50/EC50: >731
  EC50: 350 ± 32 nM
other
  melting point: 132 to 134 °C

## O=C(O)CCCC(=O)OC1CCN(S(=O)(=O)c2cc(C(=O)Nc3cc(F)c(F)c(F)c3)ccc2F)CC1 [N7, 5-((1-((2-fluoro-5-((3,4,5-trifluorophenyl)carbamoyl)phenyl)sulfonyl)piperidin-4-yl)oxy)-5-oxopentanoic acid]
[1]
  CC50: 13000 ± 1740 nM
[2]
  SI: selectivity index, the ratio of CC50/EC50: 46
  EC50: 280 ± 24 nM
other
  melting point: 135 to 137 °C

## O=C(O)CCC(=O)OC1CCN(S(=O)(=O)c2cc(C(=O)Nc3cc(F)c(F)c(F)c3)ccc2F)CC1 [N6, 4-((1-((2-fluoro-5-((3,4,5-trifluorophenyl)carbamoyl)phenyl)sulfonyl)piperidin-4-yl)oxy)-4-oxobutanoic acid]
[4]; analyte N6 in plasma after oral N6, 10 mg/kg (18.8 nmol/kg), rat
  Tlast: 1.00 h
[4]; [8]
  AUC(0-t): 8.13 ± 1.5 ng·h/mL
  Cmax: 14.7 ± 1.31 ng/mL
  Tmax: 0.25 h
  MRT last: 0.487 h
[4]; rats, oral N6 10 mg/kg
  time for complete conversion of N6 into NVR 3-778: ≤ 2 h
[1]
  CC50: 12600 ± 1050 nM
[5]
  Whole Blood (37 °C) 0 h (peak area): 0.65 ± 0.048
  Whole Blood (37 °C) 2 h (peak area): 0.70 ± 0.026
  Whole Blood (37 °C) Residual: 108%
[2]
  SI: selectivity index, the ratio of CC50/EC50: 36
  EC50: 350 ± 48 nM
Plasma stability at 4 °C
  Plasma (4 °C) 0 h (peak area): 0.88 ± 0.052
  Plasma (4 °C) 2 h (peak area): 0.89 ± 0.016
  Plasma (4 °C) Residual: 101%
[6]; phosphate buffer pH = 2.0
  solubility at 1 h: 695 µg/mL (≈ 1310 µM)
[6]; phosphate buffer pH = 7.0
  solubility at 1 h: 7500 µg/mL (≈ 14100 µM)
[6]; phosphate buffer pH = 7.4
  solubility at 1 h: 4420 µg/mL (≈ 8290 µM)
[6]; pH = 2
  water solubility compared with NVR 3-778: more than 180 times
[6]; pH = 7
  water solubility compared with NVR 3-778: > 310 times
[6]; pH = 7.4
  water solubility compared with NVR 3-778: > 900 times
other
  melting point: 138 to 140 °C
